{
  "source": "paper PMC11678782",
  "about": "“The Antioxidant and Anti-Inflammatory Activities of the Methanolic Extract, Fractions, and Isolated Compounds from Eriosema montanum Baker f. (Fabaceae)” (Molecules, 2024)",
  "key": {"[1]": {"test_system": "LPS-stimulated RAW 264.7 cells", "test": "NO production inhibition in LPS-stimulated RAW 264.7 cells (Griess)", "format": "cell-based, murine", "details": "Mus musculus, RAW264.7; RAW 264.7, 2 h pre-treatment, 500 ng/mL LPS 24 h", "protocol": "[…] in a humidified environment containing 5% CO2 and 95% air. For NO and ROS production inhibition assays, the cytotoxic effect of tested samples at 100 µg/mL after 24 h of exposure was initially measured on RAW 264.7 cells (10,000 cells per well) using the standard MTT assay. Then, for NO production inhibition assay, RAW 264.7 cells were pre-treated with tested samples at 100 µg/mL for 2 h followed by addition of culture medium containing 500 ng/mL of lipopolysaccharide (LPS) (Merck, Darmstadt, Germany). After 24 h of incubation under standard cell-culture conditions, NO released was measured in cell supernatants using the Griess reagent (Sigma Aldrich, Darmstadt, Germany), and a SpectraMax iD3 multi-mode microplate reader (Molecular Devices, San Jose, CA, USA) was used to capture the absorbance readings at 540 nm. The ability of each tested material to reduce nitric oxide synthesis by LPS-stimulated RAW 264.7 macrophages in comparison to the negative control (cells treated with DMSO at 0.5% and LPS without extract) was used to calculate the percentage of NO production inhibition.\n(§1) The IC50 values were calculated for each biological experiment using the nonlinear regression curve of the % inhibitory activity versus the logarithm (log10) of the various tested concentrations using GraphPad Prism 6.0 software (GraphPad Software, Inc., San Diego, CA, USA). The data are shown as mean ⁱ SEM (standard error of the mean) values, and all biological experiments were conducted in triplicate (n = 3). The statistical analysis was conducted using GraphPad Prism 6.0 software (GraphPad Software, Inc., San Diego, CA, USA). One-way analysis of variance (ANOVA) was used to compare the data across the tested samples and/or controls, and Student–Newman–Keuls or Dunnett’s tests were then performed. A p-value of less than 0.05 indicated a significant difference in the results."}, "[2]": {"biological_target": "T1, soybeans 15-LOX (Glycine max, UniProt P08170)", "T1 construct": "purchased Merck, Darmstadt, Germany", "T1 sequence (P08170 1-839)": "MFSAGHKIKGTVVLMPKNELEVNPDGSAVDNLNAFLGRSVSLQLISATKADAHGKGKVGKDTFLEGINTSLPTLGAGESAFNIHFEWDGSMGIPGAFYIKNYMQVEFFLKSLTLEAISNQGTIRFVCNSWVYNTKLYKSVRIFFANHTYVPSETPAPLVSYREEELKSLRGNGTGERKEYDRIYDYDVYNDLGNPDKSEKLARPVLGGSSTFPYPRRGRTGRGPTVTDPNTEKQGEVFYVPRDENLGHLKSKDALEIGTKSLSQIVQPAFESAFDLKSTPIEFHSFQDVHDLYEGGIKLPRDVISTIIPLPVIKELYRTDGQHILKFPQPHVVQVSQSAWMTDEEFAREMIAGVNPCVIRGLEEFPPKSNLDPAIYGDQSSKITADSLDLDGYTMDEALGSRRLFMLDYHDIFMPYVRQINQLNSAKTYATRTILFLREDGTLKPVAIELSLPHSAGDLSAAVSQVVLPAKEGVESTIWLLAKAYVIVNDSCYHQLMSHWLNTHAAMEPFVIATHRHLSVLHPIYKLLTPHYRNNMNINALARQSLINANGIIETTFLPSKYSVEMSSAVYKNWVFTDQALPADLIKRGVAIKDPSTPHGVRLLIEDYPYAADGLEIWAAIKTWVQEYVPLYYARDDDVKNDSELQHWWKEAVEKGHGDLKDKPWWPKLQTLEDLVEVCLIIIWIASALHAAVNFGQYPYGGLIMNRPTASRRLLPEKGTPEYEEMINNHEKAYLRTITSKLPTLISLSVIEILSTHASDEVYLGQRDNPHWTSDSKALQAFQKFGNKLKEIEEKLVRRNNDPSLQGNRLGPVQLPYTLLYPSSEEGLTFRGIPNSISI", "test": "15-lipoxygenase enzyme inhibitory assay (FOX)", "format": "biochemical, soybean", "protocol": "The method developed by Pinto et al. was used to determine the effect of the tested samples on 15-LOX inhibitory activity, with slight modifications to the 96-well microtitre plate format. Using 20 µL of tested samples at varying concentrations (3.90 to 500 µg/mL), the soybeans 15-LOX (Merck, Darmstadt, Germany) (40 µL, 200 UI/mL) were incubated at 25 °C for 5 min. The plate was then incubated at 25 °C for 20 min in the dark; after, 40 µL of linoleic acid (final concentration, 140 μM) produced in Tris-HCl buffer (50 mM, pH 7.4) was added. A total of 100 µL of the FOX reagent—sulfuric acid (30 mM), xylenol orange (100 μM), and ferrous II) sulfate (100 μM) mixed in methanol/water (9:1)—was added to terminate the test. A SpectraMax iD3 multi-mode microplate reader (Molecular Devices, San Jose, CA, USA) was used to measure the absorbance at 560 nm following 30 min of incubation at 25 °C in the dark. Gallic acid (0.78 to 100 µg/mL) was employed as the usual inhibitor of 15-LOX, while DMSO at 5% (v/v) served as the negative control. With the exception of adding the substrate after the FOX reagent, the blanks were prepared exactly like the tested samples. Formula (2) below was used to compute the 15-LOX inhibitory activity. 15 LOX inhibitory activity (%) = 100 − [(A0 − A1) − (A2 − A1)] × 100(2) where A0 is absorbance of test samples, A1 is absorbance of blank, and A2 is absorbance of negative control (DMSO 5%).\nas §1"}, "[3]": {"test_system": "prostaglandins, iNOS, pro-inflammatory cytokines, ROS, NF-κB signaling pathway", "set-up": "method as in PMID 35140617, PMID 32115816", "details": "down-regulation of prostaglandins; cited from earlier work"}, "[4]": {"test_system": "LPS-activated J774.A1 cells", "set-up": "method as in PMID 17637182", "details": "cited from earlier work"}, "[5]": {"test_system": "LPS-stimulated RAW264.7 cells", "set-up": "method as in PMID 33202848, PMID 29471006", "details": "cited from earlier work"}, "[6]": {"test": "DPPH radical scavenging assay", "details": "30 min, 517 nm", "protocol": "(§2) Three in vitro antioxidant assays, namely, 2,2′-azinobis-(3-ethylbenzothiazoline-6-sulfonic acid (ABTS), 2,2′-diphenyl-1-picrylhydrazyl (DPPH), and ferric ion reducing antioxidant power (FRAP), were used to determine the antioxidant activity according to methods previously reported. Ascorbic acid (0 to 200 μg/mL) was used as positive control in these experiments, and Formula (1) below allowed us to evaluate the percentage of radical scavenging capacity. The inhibitory concentration (IC50) values were evaluated by plotting a nonlinear graph of percentage radical scavenging capacity versus logarithm of tested concentrations. Scavenging capacity (%) = [(A0 − A1)/A0] × 100(1) where A0 is absorbance of negative control, and A1 is absorbance of extract with ABTS^•+ radical cation.\nTo be able to determine the DPPH^• scavenging capacity of EMME, we performed a serial dilution of 40 μL of the sample (1 mg/mL) with methanol on a 96-well microtiter plate, with 160 μL of solution of DPPH^• thereafter (25 μg/mL). The incubation at 25 °C in the dark was performed after 30 min, with the absorbance values measured at 517 nm on a SpectraMax iD3 multi-mode microplate against a blank (extract plus methanol without DPPH^•). […]. Methanol with DPPH^• served as the negative control. Using Formula (1), the DPPH scavenging capability was calculated at the measured concentrations above, and as previously enumerated, the IC50 values were also calculated, as indicated in the previously described procedure.\nas §1"}, "[7]": {"test": "ABTS radical scavenging assay", "details": "5 min, 734 nm", "protocol": "as §2\nSpecifically, 2.45 mM of potassium persulfate and 7 mM of ABTS solution were dissolved in methanol and combined to create the ABTS^•+ radical cation, which was stored at 25 °C for a minimum of 16 h. At 734 nm, the absorbance of the generated ABTS^•+ was measured using a SpectraMax iD3 multi-mode microplate reader (Molecular Devices, San Jose, CA, USA) and calibrated to 0.70 ± 0.02. After carefully diluting 40 μL of EMME (1 mg/mL) with methanol and adding 160 μL of (ABTS^•+) radical cation, the 96-well microtiter plate was left to sit at 25 °C in the dark for five minutes. Using a SpectraMax iD3 multi-mode microplate reader, the absorbance values were measured at 734 nm against the blank (extract plus methanol without ABTS^•+). A nonlinear curve representing the percentage of ABTS^•+ scavenging capacity vs. a logarithm of tested concentrations was then plotted to determine the inhibitory concentration (IC50) values.\nas §1"}, "[8]": {"test": "Ferric reducing antioxidant power (FRAP) assay", "details": "relative to 200 µg/mL gallic acid, 700 nm", "protocol": "as §2\nThe generally used and almost standard method for performing the FRAP test is that developed by Benzie and Strain [15]. Indeed, the antioxidant power is determined in a colorimetric reaction linked to redox in which an intense blue-colored ferroustripyridyltriazine (Fe^2+-TPTZ) complex is obtained via reduction at a low pH of ferrictripyridyltriazine (Fe^3+-TPTZ). The incubation of a quantity of 50 μL of EMME (1.56 to 200 μg/mL) or 200 μg/mL of gallic acid (Merck, Lethabong, South Africa) on a 96-well plate was carried out with 50 μL of 1% potassium ferricyanide (prepared in 0.2 M of sodium phosphate buffer, pH 6.6) for 30 min at 50 °C. Then, 50 μL of 10% trichloroacetic acid (TCA), 40 μL of distilled water, and 10 μL of 0.1% ferric chloride were added, respectively. The absorbance values were recorded on a blank (extract plus sodium phosphate buffer) at 700 nm on a SpectraMax iD3 multi-mode microplate reader (Molecular Devices, San Jose, CA, USA); the FRAP activity was indicated as inhibition percentage of 200 μg/mL of gallic acid.\nas §1"}, "[9]": {"test_system": "LPS-stimulated RAW 264.7 cells", "test": "ROS production in LPS-stimulated RAW 264.7 cells (DCFH-DA)", "format": "cell-based, murine", "details": "25, 50, 100 µg/mL, 2 h pre-treatment, 200 ng/mL LPS 24 h", "protocol": "For ROS production inhibition, on a black/clear bottom 96-well plate, RAW 264.7 cells were seeded at a density of 10,000 cells per well. The cells were then pre-treated with non-toxic quantities of EMME and genistin (5) at 25, 50, and 100 µg/mL for two hours and then exposed to 200 ng/mL of LPS for twenty-four hours under standard culture conditions. Thereafter, the cells were washed twice with PBS, followed by the addition of 100 µL of fresh FBS-free medium containing 10 µM of the fluorescent probe 2′,7′-dichlorodihydrofluorescein diacetate (DCFH-DA) (Sigma-Aldrich, Darmstadt, Germany). After 30 min of additional incubation under usual culture conditions, PBS was added to the plate in place of the fluorescent probe. The fluorescence of the cells was measured using a SpectraMax iD3 multi-mode microplate reader (Molecular Devices, San Jose, CA, USA) at 485 nm (excitation) and 535 nm (emission). The percentage of cells treated with DMSO 0.5% without LPS, known as the negative control, was used to express the intracellular ROS levels. Using an excitation/emission filter (480/535 nm) on a 40× objective, images were taken with a camera (Flexacam C1, Leica Microsystems, Wetzlar, Germany) attached to a fluorescence microscope (Leica Microsytems GmbH, Wetzlar, Germany)."}},
  "data": [
    {"smiles": "O=c1c(O)c(-c2ccc(O)c(O)c2)oc2cc(O)cc(O)c12", "note": "[Quercetin, reference compound]", "values": [
      {"measurement": "IC50", "setting": "[1]", "value": "8.93 ± 0.4", "unit": "µg/mL"}
    ]},
    {"smiles": "O=C(O)c1cc(O)c(O)c(O)c1", "note": "[Gallic acid, reference compound]", "values": [
      {"measurement": "IC50", "setting": "[2]", "value": 145, "unit": "µM"}
    ]},
    {"smiles": "O=c1c(-c2ccc(O)cc2)coc2cc(O)cc(O)c12", "note": "[genistein]", "values": [
      {"measurement": "Anti-inflammatory activities", "setting": "[3]", "value": "strong anti-inflammatory activities"}
    ]},
    {"smiles": "O=c1cc(-c2ccc(O)cc2)oc2cc(O[C@@H]3O[C@H](CO)[C@@H](O)[C@H](O)[C@H]3O[C@@H]3OC[C@](O)(CO)[C@H]3O)cc(O)c12", "note": "[Apiin]", "values": [
      {"measurement": "Inhibitory activity on NO production and iNOS expression", "setting": "[4]", "value": "significant inhibitory activity"}
    ]},
    {"smiles": "C[C@@H]1O[C@@H](O[C@H]2C(=O)c3c(O)cc(O)cc3O[C@@H]2c2ccc(O)c(O)c2)[C@H](O)[C@H](O)[C@H]1O", "note": "[Astilbin]", "values": [
      {"measurement": "Inhibition of IL-1β, IL-6, NO production and NF-κB-p65 expression", "setting": "[5]", "value": "significantly inhibiting"}
    ]},
    {"smiles": "O=C1O[C@H]([C@@H](O)CO)C(O)=C1O", "note": "[Ascorbic acid, reference compound]", "values": [
      {"measurement": "IC50 DPPH", "setting": "[6]", "value": "4.08 ± 1.04", "unit": "µg/mL"},
      {"measurement": "IC50 ABTS", "setting": "[7]", "value": "1.28 ± 0.81", "unit": "µg/mL"},
      {"measurement": "IC50 FRAP", "setting": "[8]", "value": "23.68 ± 2.89", "unit": "µg/mL"},
      {"measurement": "Inhibition of LPS-induced ROS production", "setting": "[9]", "value": "significantly inhibit"}
    ]}
  ]
}
